Measured values from ChEMBL document CHEMBL3507680, “University of Dundee, Gates Library screen for HepG2 cell viability”.

Experiment: Human HepG2 cell viability assay in 384 well format
Assay type: toxicity, cell-based
Set-up: dose 125 nL, time 70.5 hour; cytotoxicity at 70.5 h: concentration not given beside the values
Settings: HepG2 cells, read-out: Inhibition

| SMILES | cytotoxicity at 70.5 h [%] |
| --- | --- |
| COCC(=O)N(C)Cc1ccc(F)c(F)c1 | 28.3 |
| Cc1ccc(CC(=O)N2CCCCC2Cn2cccn2)cn1 (centres undefined) | -0.224 |
| Cc1cnn(CC2CCCN2C(=O)Cc2ccc3c(c2)CCO3)c1 (centres undefined) | -7.32 |
| Cc1nc(C)c(C(=O)Nc2cccc(CN3CCC(CO)CC3)c2)o1 | 0.852 |
| CN(CCN1CCOCC1)C(=O)CCc1ccc(C(F)(F)F)cc1 | 10.6 |
| NS(=O)(=O)c1ccc(CNC(=O)c2ccc(Cl)cc2F)cc1 | 5.61 |
| O=C(NCc1ccncc1)c1ccc(Cl)cc1F | 4.94 |
| Cc1ccc(Cl)cc1NC(=O)C1CC(=O)N(Cc2ccccn2)C1 (centres undefined) | 8.15 |
| O=C(Nc1cccc(C(F)(F)F)c1)C1CC(=O)N(Cc2ccccn2)C1 (centres undefined) | 34.8 |
| O=C(NCc1ccccc1F)NC1CCCN(c2ncccn2)C1 (centres undefined) | -4.69 |
| CN(C)C(=O)Cc1ccc(NC(=O)NC2CC2)cc1 | -3.59 |
| Cc1nn(CC(=O)N2CCN(c3cnccn3)CC2)c(C)c1Cl | -9.18 |
| Cc1nn(CC(=O)N2CCN(c3ncccn3)CC2)c(C)c1Cl | 21.2 |
| COCCn1ccc(NC(=O)Nc2cccc(C#N)c2)n1 | -9.39 |
| CC(C)COC1CCN(C(=O)c2cc3ccccc3c(=O)[nH]2)CC1 | -4.65 |
| COCCn1ccc2cc(NC(=O)COC)ccc21 | -3.46 |
| Cc1nc(CNC(=O)NCc2ccc(OCC3CC3)nc2)cs1 | -5.23 |
| COCCn1ccc(NC(=O)Nc2ccc(C)cc2)n1 | -5.81 |
| COc1cccc(S(=O)(=O)NC(=O)c2c(C)noc2C(C)C)c1 | -3.75 |
| CCc1nccn1C1CCCN(C(=O)c2cc[nH]n2)C1 (centres undefined) | -1.71 |
| CCc1nccn1C1CCCN(C(=O)c2cnc[nH]2)C1 (centres undefined) | -3.68 |

| SMILES | cytotoxicity at 70.5 h [%] |
| --- | --- |
| CCc1nccn1C1CCCN(C(=O)c2cc(C3CC3)on2)C1 (centres undefined) | -6.97 |
| CCc1csc(C2CCCN(C(=O)c3ccc(OC)nc3)C2)n1 (centres undefined) | -1.94 |
| CCc1csc(C2CCCN(C(=O)CCn3cc(C)cn3)C2)n1 (centres undefined) | 17.5 |
| CC(NC(=O)C(C)(C)C#N)c1ccc(OCC2CC2)c(F)c1 (centres undefined) | -6.52 |
| COc1ccc(S(=O)(=O)NC(=O)c2c(C)noc2C(C)C)cc1OC | -2.97 |
| CC(NC(=O)Cc1ccon1)c1ccc(OCC2CC2)c(F)c1 (centres undefined) | -7.52 |
| CC(NC(=O)c1csnn1)c1ccc(OCC2CC2)c(F)c1 (centres undefined) | 14.5 |
| Cc1cc(CC(=O)NC(C)c2ccc(OCC3CC3)c(F)c2)n[nH]1 (centres undefined) | -7.64 |
| CC(NC(=O)Cn1ccnc1)c1ccc(OCC2CC2)c(F)c1 (centres undefined) | 0.552 |
| CCc1nccn1C1CCCN(C(=O)c2cncn2-c2ccccc2)C1 (centres undefined) | -6.28 |
| CCc1csc(C2CCCN(C(=O)c3ccc4c(c3)OCO4)C2)n1 (centres undefined) | 13.2 |
| CCc1nccn1C1CCCN(C(=O)c2ccnc(C)n2)C1 (centres undefined) | -7.48 |
| CC(C(=O)N(C)C)N1CCCN(C(=O)Oc2ccccc2)CC1 (centres undefined) | -9.71 |
| COCc1csc(NC(=O)N2CCC(Cc3cnn(C)c3)C2)n1 (centres undefined) | -4.37 |
| CCNC(=O)CN1CCN(c2cc(C)nc(-c3ccncc3)n2)CC1 | -0.76 |
| CC(C)CNC(=O)CNC(=O)NC(C)COc1ccccc1F (centres undefined) | -13.5 |
| COc1ccc2c(c1)CN(CC(=O)NC1CCCC1)CC2 | -12.6 |
| CC(C)(C)c1n[nH]c(C2CN(C(=O)c3cc(C4CC4)[nH]n3)CCO2)n1 (centres undefined) | -1.31 |
| CC(C)(C)c1n[nH]c(C2CN(C(=O)c3cnc[nH]3)CCO2)n1 (centres undefined) | -7.66 |
| Cn1cc(CC2CCN(C(=O)NCc3csc(C4CC4)n3)C2)cn1 (centres undefined) | 0.703 |
| CC(C)c1n[nH]c(C2CN(C(=O)c3cc(C4CC4)on3)CCO2)n1 (centres undefined) | -11.3 |

| SMILES | cytotoxicity at 70.5 h [%] |
| --- | --- |
| O=C(NCc1nnc2n1CCC2)NCC1(c2cccc(F)c2)CC1 | -5.65 |
| Cc1cnn(CC2CCCN2C(=O)CCc2ccco2)c1 (centres undefined) | -6.55 |
| O=C(NCCc1nnc2n1CCC2)NCC1(c2ccccc2)CC1 | 14 |
| Cc1nc(C)c(C(=O)N2CCCC(n3ccnc3C)C2)s1 (centres undefined) | -3.06 |
| COCCCNC(=O)c1ccccc1S(C)(=O)=O | -13.3 |
| Cc1cnn(CC2CCCN2C(=O)CCc2c(C)noc2C)c1 (centres undefined) | 12.1 |
| COc1ncccc1C(=O)N1CCCC(n2ccnc2C)C1 (centres undefined) | -10.3 |
| CCOc1nnc(CN(C)C2CCCN(c3ccc(C)nn3)C2)s1 (centres undefined) | -3.1 |
| CSc1nsc(NC(=O)N2CCc3ccccc3C2)n1 | -4.59 |
| Cc1ncc(CN(C)C2CCCN(c3cccnn3)C2)s1 (centres undefined) | -2.85 |
| CN(C)c1ncc(CNS(=O)(=O)c2cc(F)ccc2Cl)n1C | -9.08 |
| CCCN1C(=O)C2(CCCCC2)NC1c1c[nH]nc1-c1cccnc1 (centres undefined) | 12.8 |
| CC(C(=O)Nc1ncccn1)N1CCc2[nH]nc(C(F)(F)F)c2C1 (centres undefined) | -6.74 |
| CC(c1ccccc1)N1CCC(NC(=O)CCc2ccsc2)CC1 (centres undefined) | -7.82 |
| COc1ccc(-n2ccc(CNCc3ccc(OC)c(O)c3)n2)cc1 | 2.11 |
| NS(=O)(=O)CCNC(=O)c1cc2cccc(F)c2o1 | 18 |
| CN(C)c1ncc(CNS(=O)(=O)c2cccc3ccccc23)n1C | -11.7 |
| COc1nc(C)ccc1CNC(=O)NC(C)Cc1c(C)nn(C)c1C (centres undefined) | -9.98 |
| CCC1(c2ccc(NS(=O)(=O)c3ccc(Cl)s3)cc2)CCC(=O)NC1=O (centres undefined) | -11.2 |
| CC(C)CN1C(=O)C2(CCCC2)NC1c1c[nH]nc1-c1cccnc1 (centres undefined) | -3.57 |
| CC(=O)NCC1CCN(c2ccnc3ccc(Br)cc23)CC1 | -2.63 |

| SMILES | cytotoxicity at 70.5 h [%] |
| --- | --- |
| Cc1ccc(-n2nnnc2C2(NCc3ccco3)CCCC2)cc1 | -13.6 |
| CCN(CCCNC(=O)c1cc2cccc(F)c2o1)S(C)(=O)=O | -8.74 |
| COc1ccccc1CC(C)(C)NC(=O)CN(C)C(C)C | -11.5 |
| O=C(CC1CCCO1)NCCc1ccccc1Br (centres undefined) | -2.65 |
| CCC(CNS(N)(=O)=O)Oc1ccccc1F (centres undefined) | -7.45 |
| CN1C(=O)CC(N(C)Cc2nc3ccccc3c(=O)[nH]2)C1=O (centres undefined) | 23.4 |
| CC(C)CCN1C(=O)CC(N(C)Cc2nc3ccccc3c(=O)[nH]2)C1=O (centres undefined) | -6.43 |
| CC(NC(=O)c1cccnc1N(C)C)c1ccccc1Br (centres undefined) | 20.1 |
| CN(C)c1ccc(NC(=O)NCc2cccs2)cn1 | -6.16 |
| CN(C)c1ccc(NC(=O)NCc2ccc(Cl)s2)cn1 | -7.08 |
| CCC(NCc1ccccc1Cl)c1ccccc1OCC(=O)NC (centres undefined) | -3.07 |
| Cc1nc2sccn2c1CNc1ccc(C(=O)O)cc1 | -7.07 |
| Cc1nc2sccn2c1CNc1cc(C(=O)O)ccc1F | -7.72 |
| O=C(CNC(=O)C1CCCC1)NCC(O)c1ccc2ccccc2c1 (centres undefined) | -0.471 |
| CC(C)(C)CC(=O)NCC(=O)NCC(O)c1ccc2ccccc2c1 (centres undefined) | 4.11 |
| CC(C)n1ccc(=O)nc1SC1CCN(c2ccccc2F)C1=O (centres undefined) | -1.73 |
| O=C1OCCN1c1cccc(CNCc2cc(F)ccc2F)c1 | 22.6 |
| CS(=O)(=O)NC(=O)CCc1cccc(OC2CCCC2)c1 | -5.51 |
| COc1cc(F)c(C(C)NC(=O)c2cccnc2C)cc1OC (centres undefined) | 2.35 |
| COC(=O)CCC(=O)Nc1ccc(Br)c(C)n1 | -0.954 |
| CCc1nc(CC(=O)N2CCC(C(=O)N3CCCCC3)CC2)cs1 | -4.54 |
